SMILES strings stand for the structures.

The target of data set [1] is Poly [ADP-ribose] polymerase 2 (Homo sapiens, UniProt Q9UGN5). The data set is described as follows: Inhibition of PARP2.
The nature of data set [2]: Selectivity for […].
For data set [3], the system named is Rattus norvegicus. The data set is described as follows: Cardioprotective effect in rat cardiac ischemia model assessed as reduction in infarct size at 80 mg/kg, iv administered prior to reperfusion. Type of data set: functional, Heart. On the set-up: scale not given: the % may be the effect or the level left.
The subject of data set [4] is Rattus norvegicus. The data set is described as follows: Neuroprotective effect in rat transient MCAO model assessed as reduction in infarct volume at 40 mg/kg, iv administered prior to reperfusion. Also noted: scale not given: the % may be the effect or the level left.
The nature of data set [5]: Half life in iv dosed human patient. Type of data set: ADME, organism-based. As to conditions: in vivo.
The next data set concerns Homo sapiens. The data set can be described thus: Toxicity in iv infused human patients assessed as maximum tolerated dose. Format: organism-based. As to conditions: in vivo.
Data set [6] in a line: Biodistribution in human patient urine. As to conditions: in vivo. Type of data set: ADME, organism-based.
For the next data set, the system named is LoVo. The data set can be described thus: Potentiation of TMZ-induced antiproliferation against human LoVo cells at 0.4 uM. Type of data set: functional.
Data set [7] in a line: Half life in human patient at 2.8 mg/kg, iv. Also noted: dose 2.8 mg/kg, route intravenous. Format: ADME, organism-based. As to conditions: in vivo.
Data set [8] concerns the target T1, Poly [ADP-ribose] polymerase 1 (Homo sapiens, UniProt P09874).
Data set [9] deals with T1, Poly [ADP-ribose] polymerase 1. The data set is described as follows: Inhibition of PARP1 at 9.2 uM. Also noted: scale not given: the % may be the effect or the level left.
In a further data set the test system is L1210. The data set can be described thus: Cytotoxicity against mouse L1210 cells. Format: functional.
Data set [10] in a line: Ratio of drug level in brain to plasma in rat. Format: ADME.
Data set [11] deals with Rattus norvegicus. The data set is described as follows: Neuroprotective effect in rat transient MCAO model assessed as reduction in infarct volume at 10 mg/kg/hr, iv administered prior to reperfusion. On the set-up: scale not given: the % may be the effect or the level left.
Data set [12] concerns Rattus norvegicus. The data set can be described thus: Cardioprotective effect in rat ischemia/reperfusion-induced myocardial infarction model assessed as reduction in infarct size at 20 mg/kg, iv administered 10 mins prior to reperfusion. On the set-up: scale not given: the % may be the effect or the level left.
Data set [13] can be described thus: Half life in human patient at 200 to 800 mg, iv. Format: ADME, organism-based. The following applies: in vivo.
In another data set the test system is Liver microsomes. The data set can be described thus: Intrinsic clearance in human liver microsome. Format: ADME.
Data set [14] deals with Rattus norvegicus. The data set can be described thus: Cardioprotective effect in rat ischemia/reperfusion-induced myocardial infarction model assessed as reduction in infarct size at 3 mg/kg/hr, iv administered prior to reperfusion. Type of data set: functional, Myocardium. Also noted: scale not given: the % may be the effect or the level left.
Another data set in a line: in vivo. As to conditions: rat, brain/plasma, 10 mg/kg.
Data set [15] has as its system Rattus norvegicus. The data set can be described thus: Cardioprotective effect in rat ischemia/reperfusion-induced myocardial infarction model assessed as reduction in infarct size at 3 mg/kg/hr, iv administered prior to reperfusion measured after 4 hrs. Format: functional, Myocardium. Also noted: scale not given: the % may be the effect or the level left.
In data set [16] the test system is Rattus norvegicus. The data set can be described thus: Cardioprotective effect in rat ischemia/reperfusion-induced myocardial infarction model assessed as reduction in infarct size at 3 mg/kg/hr, iv administered prior to reperfusion measured after 2 hrs. Format: functional, Myocardium. On the set-up: scale not given: the % may be the effect or the level left.

T1 sequence (P09874 whole entry): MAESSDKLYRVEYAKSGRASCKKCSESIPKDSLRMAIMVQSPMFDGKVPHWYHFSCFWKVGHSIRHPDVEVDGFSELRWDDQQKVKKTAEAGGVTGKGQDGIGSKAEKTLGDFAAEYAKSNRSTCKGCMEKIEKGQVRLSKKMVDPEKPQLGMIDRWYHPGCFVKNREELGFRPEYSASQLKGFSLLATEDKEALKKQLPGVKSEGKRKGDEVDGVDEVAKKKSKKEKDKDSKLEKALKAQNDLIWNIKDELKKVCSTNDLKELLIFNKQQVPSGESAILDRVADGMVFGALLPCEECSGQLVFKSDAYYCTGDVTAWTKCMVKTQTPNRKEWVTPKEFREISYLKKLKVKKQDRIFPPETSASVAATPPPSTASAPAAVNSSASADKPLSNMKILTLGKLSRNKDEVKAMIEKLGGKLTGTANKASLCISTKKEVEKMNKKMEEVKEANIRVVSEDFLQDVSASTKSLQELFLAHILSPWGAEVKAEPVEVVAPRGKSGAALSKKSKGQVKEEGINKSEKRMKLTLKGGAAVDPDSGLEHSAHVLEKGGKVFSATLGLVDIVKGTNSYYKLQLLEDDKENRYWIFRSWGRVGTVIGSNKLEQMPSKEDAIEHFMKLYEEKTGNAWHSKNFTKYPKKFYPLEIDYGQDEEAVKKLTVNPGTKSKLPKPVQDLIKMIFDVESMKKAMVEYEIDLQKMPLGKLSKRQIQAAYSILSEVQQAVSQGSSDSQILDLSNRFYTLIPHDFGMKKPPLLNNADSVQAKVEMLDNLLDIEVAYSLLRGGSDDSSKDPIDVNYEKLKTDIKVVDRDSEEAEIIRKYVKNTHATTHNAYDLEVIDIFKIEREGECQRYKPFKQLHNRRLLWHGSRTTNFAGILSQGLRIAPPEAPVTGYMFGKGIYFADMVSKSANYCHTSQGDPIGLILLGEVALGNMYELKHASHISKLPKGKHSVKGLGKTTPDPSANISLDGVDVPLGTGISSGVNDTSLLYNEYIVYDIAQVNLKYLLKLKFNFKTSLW
Chain of Poly [ADP-ribose] polymerase 2 (Q9UGN5 whole entry): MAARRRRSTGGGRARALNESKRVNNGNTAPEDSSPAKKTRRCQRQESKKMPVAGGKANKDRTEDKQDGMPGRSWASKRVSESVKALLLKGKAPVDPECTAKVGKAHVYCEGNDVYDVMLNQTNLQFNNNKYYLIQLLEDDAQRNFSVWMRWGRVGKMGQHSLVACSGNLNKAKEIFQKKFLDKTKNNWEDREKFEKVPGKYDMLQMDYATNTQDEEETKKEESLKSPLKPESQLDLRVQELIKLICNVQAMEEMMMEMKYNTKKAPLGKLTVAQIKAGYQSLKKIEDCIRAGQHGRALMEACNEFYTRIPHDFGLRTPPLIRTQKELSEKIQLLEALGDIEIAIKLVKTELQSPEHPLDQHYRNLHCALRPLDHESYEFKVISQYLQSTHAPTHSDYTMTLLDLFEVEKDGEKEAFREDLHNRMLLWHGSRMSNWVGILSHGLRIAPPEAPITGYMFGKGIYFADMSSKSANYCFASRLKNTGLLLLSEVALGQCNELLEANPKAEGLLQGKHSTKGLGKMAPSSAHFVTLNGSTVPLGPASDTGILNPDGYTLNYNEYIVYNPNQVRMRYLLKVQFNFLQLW
Description for in vivo: Ratio of drug level in brain to plasma in rat at 10 mg/kg/hr after 6 hrs

In the case of `N#Cc1ccc(-c2cnc3cccc(C(N)=O)c3n2)cc1`, in data set [1], the IC50 was 8 nM. In addition, the Selectivity ratio in data set [2] was 10. In the case of `CN1CCN(c2ccc3nc(O)c4ccccc4c3n2)CC1`, the Activity came out at 25% with Rattus norvegicus [3] and 44% in the data set on Rattus norvegicus [4]. Compound `CNCc1ccc(-c2[nH]c3cc(F)cc4c3c2CCNC4=O)cc1` [RUCAPARIB] gave a half-life in data set [5] of 9.5 h. The MTD with Homo sapiens came out at 200 mg/m2. In addition, the Drug uptake in [6] is 11%. Turning to `CN(C)Cc1ccc(-c2nc3cccc4c3n2CCNC4=O)cc1`, the PF50 in the data set with LoVo is 5.5.

`NC(=O)c1ccc(I)c([N+](=O)[O-])c1` [INIPARIB]: the half-life in data set [7] was 4 min. `NC(=O)c1cccc(C2CO2)c1` (centres undefined): half-maximal inhibition in data set [8] (IC50) required 1000 nM. In [9], this compound registered an Activity of 88%.

In turn, `O=c1[nH]c(CCCN2CC=C(c3ccc(F)cc3)CC2)nc2c(Cl)cccc12` gave an IC50 in [1] of 500 nM. As to `CCc1cc2cc(C(CCN3CCCCC3)Cc3ccc4c(c3)OCCO4)ccc2[nH]c1=O` (centres undefined), in data set [8], the IC50 is 9.2 nM. Compound `Cc1nc2c(O)cccc2c(=O)[nH]1` yielded an Activity in the data set on L1210 of 90%. As for `Cc1nc2cccc(Cl)c2c(=O)[nH]1`, the Kp in data set [10] is 0.82.

`Nc1ncnc2c1ncn2[C@@H]1O[C@H](C(=O)N2CCN(CC(=O)Nc3cccc4c3CNC4=O)CC2)[C@@H](O)[C@H]1O`: the Activity with Rattus norvegicus [11] is listed as 57%; with Rattus norvegicus [12], 35%. As for `OC[C@H]1O[C@@H](n2cnc3c(O)ncnc32)[C@H](O)[C@@H]1O` [INOSINE], the half-life in data set [13] is 7.5 h. Regarding `O=C1CCC(=O)N1c1cc(Cc2n[nH]c(=O)c3ccccc23)ccc1F`, the CL in the data set on Liver microsomes was below 1 mL/min/g.

`O=c1[nH]ccc2c(Br)cccc12` displayed a concentration for half-maximal inhibition (IC50) in data set [8] of 270 nM. Still for that read-out and setting: under `O=c1[nH]cnc2ccccc12` [QUINAZOLINONE] stands 15800 nM; under `O=c1[nH]cc(-c2ccccc2)c2ccccc12`, 890 nM. For `CN(C)Cc1ccc(-c2cc3cccc4c3n2CCNC4=O)cc1`, the PF50 in the data set on LoVo is 3.8. Still for that read-out and setting: under `O=C1NCCc2c(-c3ccc(CN4CCCC4)cc3)[nH]c3cccc1c23` stands 7.8. Take `NC(=O)c1cccc2[nH]cnc12`: the half-maximal inhibitory concentration (IC50) in data set [8] was found to be 240 nM. On to `CN(C)Cc1ccc(-c2c[nH]c(=O)c3cccc(O)c23)cc1`, for which the Activity was 57% in the data set on Rattus norvegicus [14], 47% with Rattus norvegicus [15] and 50% with Rattus norvegicus [16]. The compound further showed a Kp at 6 h in “in vivo” of 0.8.

Source of the values: ChEMBL document CHEMBL1177697, “Evolution of poly(ADP-ribose) polymerase-1 (PARP-1) inhibitors. From concept to clinic” (J Med Chem, 2010).
